# Calls of active or inactive are those of the source.
# Key:
# [1] = target: Glyceraldehyde-3-phosphate dehydrogenase (Homo sapiens, UniProt P04406)
# [2] = target: T1, Bcl-2-related protein A1 (Mus musculus, UniProt Q07440); experiment: small-molecule antagonists of Bfl-1/BH3 interaction – biochemical, TR-FRET, mouse Bfl-1, confirmation (AID 621);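 further: TR-FRET binding of GST-Bfl-1 to FITC-labelled Bid peptide via terbium antibody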
# T1 sequence (Q07440 whole entry): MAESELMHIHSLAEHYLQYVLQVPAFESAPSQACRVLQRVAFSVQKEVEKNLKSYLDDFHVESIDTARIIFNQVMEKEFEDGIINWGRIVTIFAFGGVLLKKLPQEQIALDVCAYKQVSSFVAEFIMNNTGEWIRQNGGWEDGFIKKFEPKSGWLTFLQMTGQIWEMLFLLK
# [3] = target: T1, Bcl-2-related protein A1; experiment: Bfl-1 binding inhibitors, SAR follow-up, biochemical, fluorescence polarization (AID 1070)
# [4] = target: T2, Leucine aminopeptidase (Plasmodium falciparum 3D7, UniProt Q8IL11); experiment: P. falciparum M17LAP inhibitors, primary screen, biochemical, fluorogenic H-Leu-NHMec substrate, 1536-well (AID 1619); assay type: functional
# T2 sequence (Q8IL11 whole entry): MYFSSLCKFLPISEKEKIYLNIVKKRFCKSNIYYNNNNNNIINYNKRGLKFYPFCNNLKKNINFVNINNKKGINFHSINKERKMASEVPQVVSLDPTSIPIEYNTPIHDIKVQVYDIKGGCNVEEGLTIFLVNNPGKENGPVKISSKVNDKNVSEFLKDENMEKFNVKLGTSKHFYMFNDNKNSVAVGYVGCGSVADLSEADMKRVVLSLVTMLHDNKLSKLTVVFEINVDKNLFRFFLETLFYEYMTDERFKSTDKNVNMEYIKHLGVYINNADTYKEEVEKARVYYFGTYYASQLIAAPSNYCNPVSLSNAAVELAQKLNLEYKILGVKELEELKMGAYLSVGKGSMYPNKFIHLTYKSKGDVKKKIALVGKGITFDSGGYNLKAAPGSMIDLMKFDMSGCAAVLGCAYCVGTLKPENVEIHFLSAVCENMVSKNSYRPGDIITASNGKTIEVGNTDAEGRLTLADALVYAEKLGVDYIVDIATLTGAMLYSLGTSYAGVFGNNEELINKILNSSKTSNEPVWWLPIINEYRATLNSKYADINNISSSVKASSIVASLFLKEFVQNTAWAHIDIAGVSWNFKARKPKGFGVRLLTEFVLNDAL
# [5] = target: Procathepsin L (Homo sapiens, UniProt P07711); experiment: CTSL1 protease inhibition – biochemical, QFRET, 1536-well, counter-screen for M1/M17 aminopeptidase inhibitor project, dose response (AID 2214)
# [6] = target: Aspartyl aminopeptidase (Plasmodium falciparum 3D7, UniProt Q8I2J3); experiment: Counterscreen for inhibitors of M1 and M17 aminopeptidases: QFRET-based biochemical high throughput dose response assay for inhibitors of the Plasmodium falciparum M18 Aspartyl Aminopeptidase (PFM18AAP). [Related PubChem assays: 1619 (Screening assay (M17LAP inhibitors).), 1445 (Screening assay (M1AAP inhibitors).)]
# [7] = target: Serine/threonine-protein phosphatase (Homo sapiens, UniProt Q9BPW0); experiment: inhibition of protein phosphatase 5 activity – biochemical, fluorescence, dose response (AID 2395)
# [8] = viability of HCT116 lacking mutant beta-catenin – cell-based, human colon tumor, dose response (AID 1045); assay type: functional;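 further: HCT116 colon tumor cells with beta catenin knocked out; cells exposed to compound for 60 hours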
# [9] = target: T3, Protein RecA (Mycobacterium tuberculosis, UniProt P9WHJ3); experiment: Fluorescence Cell-Free Homogeneous Dose Retest to Identify Inhibitors of RecA-Intein Splicing Activity. [Related pubchem assays (depositor defined):AID2097, AID2223, AID489010, AID492950]; assay type: functional
# T3 sequence (P9WHJ3 whole entry): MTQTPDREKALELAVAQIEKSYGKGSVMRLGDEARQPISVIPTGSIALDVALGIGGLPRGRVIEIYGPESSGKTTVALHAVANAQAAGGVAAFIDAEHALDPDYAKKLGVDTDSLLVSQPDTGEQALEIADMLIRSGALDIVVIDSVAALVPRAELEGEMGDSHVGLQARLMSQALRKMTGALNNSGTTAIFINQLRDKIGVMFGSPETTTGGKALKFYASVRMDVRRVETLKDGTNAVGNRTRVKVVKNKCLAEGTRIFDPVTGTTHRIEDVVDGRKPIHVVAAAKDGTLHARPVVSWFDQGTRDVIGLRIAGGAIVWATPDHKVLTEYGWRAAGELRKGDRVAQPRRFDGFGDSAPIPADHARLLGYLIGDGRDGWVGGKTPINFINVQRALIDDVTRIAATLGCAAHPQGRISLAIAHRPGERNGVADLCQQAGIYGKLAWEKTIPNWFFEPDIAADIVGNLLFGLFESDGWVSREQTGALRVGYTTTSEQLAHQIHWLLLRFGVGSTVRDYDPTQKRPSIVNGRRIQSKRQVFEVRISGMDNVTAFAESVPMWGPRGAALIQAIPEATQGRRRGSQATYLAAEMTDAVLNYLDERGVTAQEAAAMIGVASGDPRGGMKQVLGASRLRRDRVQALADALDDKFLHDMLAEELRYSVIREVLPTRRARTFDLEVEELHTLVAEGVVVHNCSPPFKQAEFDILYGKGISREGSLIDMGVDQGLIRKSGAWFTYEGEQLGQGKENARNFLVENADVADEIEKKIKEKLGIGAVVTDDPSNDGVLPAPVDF
# [10] = target: Serine/threonine-protein phosphatase PP1-alpha catalytic subunit (Homo sapiens, UniProt P62136); experiment: inhibition of protein phosphatase 1 activity – biochemical, fluorescence, dose response (AID 2394)
# [11] = target: Sphingosine 1-phosphate receptor 2 (Homo sapiens, UniProt O95136); experiment: Dose Response Cell Based Assay for Agonists of the S1P2 Receptor. [Related pubchem assays: 729, 736, 843 ]; assay type: functional
# [12] = viability of PTEN-deleted HCT116 cells – cell-based, HCT116 PTEN knockout, dose response (AID 1047); assay type: functional;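 further: HCT116 colon tumor cells with PTEN knocked out; cells exposed to compound for 60 hours before readout; potency for loss of cell viability measured by luminescence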
# [13] = target: Large T antigen (Simian virus 40, UniProt P03070); assay type: functional, Betapolyomavirus macacae;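 further: Confirmatory-stage PubChem screen for compounds that inhibit SV40 T antigen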
# [14] = antibacterial activity against E. coli NEB5alpha – luminescence, counter-screen for MEX-5/POS-1 RNA-binding inhibitor project, dose response (AID 1959); assay type: functional
# [15] = Luminescence Cell-Based Dose Confirmation HTS to Identify Inhibitors of Platelet Dense Granule Release. [Related pubchem assays: 1663 (Primary HTS), 1678 (Summary of Project)]; assay type: functional
# [16] = target: T4, RNA-binding protein pos-1 (Caenorhabditis elegans, UniProt G5EF15); experiment: disruptors of C. elegans POS-1 RNA interaction – biochemical, fluorescence polarization, dose response (AID 1964);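 further: purified POS-1 fused to maltose binding protein made in E. coli; potency of compounds blocking POS-1 binding to fluorescent RNA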
# T4 sequence (G5EF15 whole entry): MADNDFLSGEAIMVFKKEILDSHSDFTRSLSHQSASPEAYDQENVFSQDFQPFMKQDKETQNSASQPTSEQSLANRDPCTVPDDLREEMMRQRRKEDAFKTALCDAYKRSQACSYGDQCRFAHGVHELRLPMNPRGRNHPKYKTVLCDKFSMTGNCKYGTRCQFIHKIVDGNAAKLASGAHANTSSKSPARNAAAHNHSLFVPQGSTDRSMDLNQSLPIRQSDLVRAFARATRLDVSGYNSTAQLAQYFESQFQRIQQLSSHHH
# [17] = target: Luciferin 4-monooxygenase (Photinus pyralis, UniProt P08659); experiment: inhibition of purified Photinus pyralis luciferase – biochemical, luminescence, dose response (AID 1891)
# [18] = target: T5, Zinc finger protein mex-5 (Caenorhabditis elegans, UniProt Q9XUB2); experiment: potency of MEX-5 RNA-binding blockers – biochemical, C. elegans, fluorescence polarization, dose response (AID 1960)
# T5 sequence (Q9XUB2 whole entry): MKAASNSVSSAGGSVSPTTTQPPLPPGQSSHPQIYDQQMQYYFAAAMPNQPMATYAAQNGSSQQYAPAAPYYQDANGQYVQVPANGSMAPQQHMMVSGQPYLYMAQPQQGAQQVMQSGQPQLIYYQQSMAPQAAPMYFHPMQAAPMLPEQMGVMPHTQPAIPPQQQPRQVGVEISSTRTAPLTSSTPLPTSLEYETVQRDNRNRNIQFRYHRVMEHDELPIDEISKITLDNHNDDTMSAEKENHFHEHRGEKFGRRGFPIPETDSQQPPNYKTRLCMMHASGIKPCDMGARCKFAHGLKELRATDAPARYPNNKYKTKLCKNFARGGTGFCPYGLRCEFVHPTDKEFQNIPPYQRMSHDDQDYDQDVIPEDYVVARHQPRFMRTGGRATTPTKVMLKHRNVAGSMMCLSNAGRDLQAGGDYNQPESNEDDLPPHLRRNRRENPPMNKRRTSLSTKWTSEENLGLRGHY
# [19] = target: T6, Histone-lysine N-methyltransferase NSD2 (Homo sapiens, UniProt O96028); assay type: biochemical
# T6 sequence (O96028 whole entry): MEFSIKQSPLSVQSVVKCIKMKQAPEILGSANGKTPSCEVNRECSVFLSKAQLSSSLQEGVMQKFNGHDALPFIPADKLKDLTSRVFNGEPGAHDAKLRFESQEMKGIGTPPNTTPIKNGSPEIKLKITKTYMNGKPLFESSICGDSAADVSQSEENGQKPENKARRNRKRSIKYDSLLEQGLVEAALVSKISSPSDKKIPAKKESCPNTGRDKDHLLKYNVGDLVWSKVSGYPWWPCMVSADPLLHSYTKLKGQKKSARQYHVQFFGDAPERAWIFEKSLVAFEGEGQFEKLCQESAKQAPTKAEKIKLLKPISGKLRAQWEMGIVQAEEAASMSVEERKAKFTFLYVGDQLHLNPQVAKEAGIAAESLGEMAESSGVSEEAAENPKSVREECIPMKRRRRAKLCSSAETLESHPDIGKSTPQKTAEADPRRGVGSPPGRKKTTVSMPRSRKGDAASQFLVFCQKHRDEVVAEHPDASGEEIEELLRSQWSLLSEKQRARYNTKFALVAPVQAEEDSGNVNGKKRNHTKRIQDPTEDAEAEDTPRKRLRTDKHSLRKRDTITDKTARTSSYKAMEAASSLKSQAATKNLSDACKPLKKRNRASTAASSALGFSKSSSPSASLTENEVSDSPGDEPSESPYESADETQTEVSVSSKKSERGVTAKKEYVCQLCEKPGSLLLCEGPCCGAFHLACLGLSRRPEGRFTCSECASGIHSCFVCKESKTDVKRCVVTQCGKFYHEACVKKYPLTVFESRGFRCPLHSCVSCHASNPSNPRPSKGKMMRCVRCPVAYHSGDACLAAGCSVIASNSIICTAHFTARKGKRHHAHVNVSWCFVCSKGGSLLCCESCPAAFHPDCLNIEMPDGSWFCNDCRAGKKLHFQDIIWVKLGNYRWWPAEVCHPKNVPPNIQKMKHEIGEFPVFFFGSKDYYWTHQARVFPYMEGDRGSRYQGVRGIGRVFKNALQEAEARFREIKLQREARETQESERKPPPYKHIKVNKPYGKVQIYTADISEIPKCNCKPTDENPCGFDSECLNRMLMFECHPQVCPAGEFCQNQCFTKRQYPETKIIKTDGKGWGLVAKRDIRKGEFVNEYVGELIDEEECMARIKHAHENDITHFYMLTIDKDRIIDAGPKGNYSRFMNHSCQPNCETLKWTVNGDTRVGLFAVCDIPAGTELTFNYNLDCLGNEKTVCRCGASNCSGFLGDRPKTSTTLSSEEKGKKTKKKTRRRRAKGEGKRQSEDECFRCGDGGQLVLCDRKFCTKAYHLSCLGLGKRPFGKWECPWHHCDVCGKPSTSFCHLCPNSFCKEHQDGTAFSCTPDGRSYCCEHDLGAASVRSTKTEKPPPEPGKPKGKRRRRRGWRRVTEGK
# Sequence of Luciferin 4-monooxygenase (P08659 whole entry): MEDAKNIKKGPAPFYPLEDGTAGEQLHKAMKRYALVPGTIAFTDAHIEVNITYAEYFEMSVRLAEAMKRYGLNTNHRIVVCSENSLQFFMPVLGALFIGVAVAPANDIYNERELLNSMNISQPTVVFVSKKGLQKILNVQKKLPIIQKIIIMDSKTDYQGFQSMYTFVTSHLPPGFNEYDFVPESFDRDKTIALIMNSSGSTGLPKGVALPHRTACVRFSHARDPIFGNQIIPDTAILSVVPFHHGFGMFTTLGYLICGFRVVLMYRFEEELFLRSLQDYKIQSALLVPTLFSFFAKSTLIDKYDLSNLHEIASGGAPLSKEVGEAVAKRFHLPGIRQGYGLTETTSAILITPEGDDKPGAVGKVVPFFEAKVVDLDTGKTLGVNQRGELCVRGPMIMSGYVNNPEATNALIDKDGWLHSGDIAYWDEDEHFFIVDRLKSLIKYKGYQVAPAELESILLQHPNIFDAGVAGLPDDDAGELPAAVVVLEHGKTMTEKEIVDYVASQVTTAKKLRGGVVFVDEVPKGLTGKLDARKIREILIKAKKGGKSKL
# Sequence of Sphingosine 1-phosphate receptor 2 (O95136 whole entry): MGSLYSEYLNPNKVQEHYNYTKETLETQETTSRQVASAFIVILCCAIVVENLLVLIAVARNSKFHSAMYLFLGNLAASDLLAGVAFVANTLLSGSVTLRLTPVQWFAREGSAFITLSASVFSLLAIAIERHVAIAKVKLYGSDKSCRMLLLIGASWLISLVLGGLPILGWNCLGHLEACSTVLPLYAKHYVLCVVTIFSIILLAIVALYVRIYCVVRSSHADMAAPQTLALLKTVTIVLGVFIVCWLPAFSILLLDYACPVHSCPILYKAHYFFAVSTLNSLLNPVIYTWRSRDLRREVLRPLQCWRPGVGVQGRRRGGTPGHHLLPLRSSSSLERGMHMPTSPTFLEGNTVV
# Sequence of Serine/threonine-protein phosphatase PP1-alpha catalytic subunit (P62136 whole entry): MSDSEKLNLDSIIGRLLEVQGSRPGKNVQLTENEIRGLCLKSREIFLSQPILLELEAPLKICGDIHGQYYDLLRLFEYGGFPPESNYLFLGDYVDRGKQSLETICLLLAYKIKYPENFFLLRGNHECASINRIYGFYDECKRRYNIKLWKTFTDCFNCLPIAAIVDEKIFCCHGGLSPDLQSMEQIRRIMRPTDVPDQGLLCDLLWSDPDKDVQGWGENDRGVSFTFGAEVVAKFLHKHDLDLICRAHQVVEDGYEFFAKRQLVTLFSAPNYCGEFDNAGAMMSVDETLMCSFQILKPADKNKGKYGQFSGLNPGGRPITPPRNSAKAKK
# Sequence of Serine/threonine-protein phosphatase (Q9BPW0 whole entry): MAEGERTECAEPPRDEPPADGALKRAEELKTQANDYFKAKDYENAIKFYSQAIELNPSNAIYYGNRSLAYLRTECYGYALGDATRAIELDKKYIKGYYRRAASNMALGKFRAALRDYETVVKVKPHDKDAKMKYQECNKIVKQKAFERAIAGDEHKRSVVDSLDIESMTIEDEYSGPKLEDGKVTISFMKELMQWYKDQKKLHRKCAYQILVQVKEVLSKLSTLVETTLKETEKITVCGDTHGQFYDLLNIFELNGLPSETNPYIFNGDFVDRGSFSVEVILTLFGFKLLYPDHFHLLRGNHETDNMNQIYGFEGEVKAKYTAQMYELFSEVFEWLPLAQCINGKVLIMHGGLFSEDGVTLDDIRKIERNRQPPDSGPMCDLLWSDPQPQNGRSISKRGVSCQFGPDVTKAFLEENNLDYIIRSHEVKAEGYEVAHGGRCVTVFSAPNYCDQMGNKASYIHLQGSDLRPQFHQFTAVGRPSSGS
# Sequence of Procathepsin L (P07711 whole entry): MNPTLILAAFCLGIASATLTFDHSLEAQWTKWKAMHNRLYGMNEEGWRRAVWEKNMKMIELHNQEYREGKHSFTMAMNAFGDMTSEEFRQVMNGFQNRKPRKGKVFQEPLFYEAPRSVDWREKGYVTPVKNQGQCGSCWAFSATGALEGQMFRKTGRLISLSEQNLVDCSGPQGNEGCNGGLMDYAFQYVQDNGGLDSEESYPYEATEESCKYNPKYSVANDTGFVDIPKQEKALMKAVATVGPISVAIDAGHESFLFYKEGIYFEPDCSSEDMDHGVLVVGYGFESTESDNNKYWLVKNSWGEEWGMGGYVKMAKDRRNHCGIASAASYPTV
# Sequence of Large T antigen (P03070 whole entry): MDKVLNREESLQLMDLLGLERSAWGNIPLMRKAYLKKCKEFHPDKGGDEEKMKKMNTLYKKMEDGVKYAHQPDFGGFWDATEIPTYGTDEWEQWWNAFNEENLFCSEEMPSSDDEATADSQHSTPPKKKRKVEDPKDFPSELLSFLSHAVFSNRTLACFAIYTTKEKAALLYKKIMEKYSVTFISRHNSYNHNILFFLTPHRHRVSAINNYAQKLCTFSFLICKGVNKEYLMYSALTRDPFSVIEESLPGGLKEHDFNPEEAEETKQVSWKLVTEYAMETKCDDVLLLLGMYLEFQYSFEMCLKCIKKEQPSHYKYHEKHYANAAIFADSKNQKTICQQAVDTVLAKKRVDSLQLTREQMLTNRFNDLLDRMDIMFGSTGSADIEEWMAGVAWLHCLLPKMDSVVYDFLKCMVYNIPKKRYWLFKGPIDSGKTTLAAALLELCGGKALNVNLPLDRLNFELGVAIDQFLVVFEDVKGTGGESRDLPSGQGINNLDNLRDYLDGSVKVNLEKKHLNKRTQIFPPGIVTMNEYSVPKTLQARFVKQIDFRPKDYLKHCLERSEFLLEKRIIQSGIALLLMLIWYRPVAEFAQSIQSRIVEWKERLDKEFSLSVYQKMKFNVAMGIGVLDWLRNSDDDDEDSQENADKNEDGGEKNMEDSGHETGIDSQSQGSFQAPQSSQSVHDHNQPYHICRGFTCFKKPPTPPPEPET
# Sequence of Glyceraldehyde-3-phosphate dehydrogenase (P04406 whole entry): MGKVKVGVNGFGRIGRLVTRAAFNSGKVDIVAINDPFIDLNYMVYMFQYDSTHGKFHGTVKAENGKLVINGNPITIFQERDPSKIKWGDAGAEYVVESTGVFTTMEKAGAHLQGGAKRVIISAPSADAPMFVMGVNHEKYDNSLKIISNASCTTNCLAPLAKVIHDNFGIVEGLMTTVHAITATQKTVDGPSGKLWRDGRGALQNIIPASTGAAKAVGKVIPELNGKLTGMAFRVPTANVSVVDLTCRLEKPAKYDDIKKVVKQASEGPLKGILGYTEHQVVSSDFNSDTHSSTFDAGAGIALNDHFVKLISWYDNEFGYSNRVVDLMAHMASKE
# Sequence of Aspartyl aminopeptidase (Q8I2J3 whole entry): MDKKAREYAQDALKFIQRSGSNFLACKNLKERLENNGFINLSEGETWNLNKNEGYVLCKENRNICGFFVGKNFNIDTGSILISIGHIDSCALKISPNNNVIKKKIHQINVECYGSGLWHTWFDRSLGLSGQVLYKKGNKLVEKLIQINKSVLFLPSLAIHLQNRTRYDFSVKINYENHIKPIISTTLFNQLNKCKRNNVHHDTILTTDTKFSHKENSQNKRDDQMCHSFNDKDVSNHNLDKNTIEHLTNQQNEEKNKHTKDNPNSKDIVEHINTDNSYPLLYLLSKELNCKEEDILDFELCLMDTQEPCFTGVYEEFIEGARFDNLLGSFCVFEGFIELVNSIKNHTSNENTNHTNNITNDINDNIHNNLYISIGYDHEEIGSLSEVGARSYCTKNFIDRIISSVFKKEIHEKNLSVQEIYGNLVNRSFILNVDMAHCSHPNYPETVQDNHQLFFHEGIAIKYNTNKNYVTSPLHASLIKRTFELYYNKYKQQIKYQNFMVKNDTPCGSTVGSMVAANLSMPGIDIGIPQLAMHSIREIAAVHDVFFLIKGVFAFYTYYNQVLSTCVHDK
smiles,measurement,setting,value
CC1C(=O)NCCN1C1=C(Cl)C(=O)N(c2ccc(Cl)c(Cl)c2)C1=O (centres undefined),IC50,[1],> 50 µM (inconclusive)
same,IC50,[2],2.03 µM (active)
same,IC50,[3],5.63 µM (active)
Cc1ccc(Nc2nnc(SCc3cc(=O)n4ccsc4n3)s2)c(C)c1,IC50,[4],6.49 µM (active)
same,IC50,[5],> 59.6 µM (not active)
same,IC50,[6],> 73.5 µM (not active)
CC(C)CNC(=O)c1c(N)n(Cc2ccc3c(c2)OCO3)c2nc3ccccc3nc12,IC50,[7],17.9 µM (not active)
same,EC50,[8],16.3 µM (active)
same,EC50,[9],> 380 µM (inconclusive)
same,IC50,[10],> 67 µM (not active)
same,EC50,[11],2.61 µM (active)
same,EC50,[12],11.9 µM (active)
O=C(/C=C/c1ccc(O)c(O)c1)c1ccccc1O,IC50,[13],17.4 µM (active)
same,EC50,[14],19.5 µM (active)
same,EC50,[15],2.23 µM (active)
same,EC50,[16],> 300 µM (not active)
same,EC50,[17],0.437 µM (active)
same,EC50,[18],42.3 µM (active)
same,AC50,[19],> 20 µM (inactive)

# From ChEMBL document CHEMBL1201862, “PubChem BioAssay data set” (2004)
